Measurements reported in PMC7930822, “Phase I Trial to Evaluate the Tolerance, Pharmacokinetics and Efficacy of the Broad-Spectrum ErbB Family Inhibitor Larotinib Mesylate in Patients With Advanced Solid Tumors” (Frontiers in Pharmacology, 2021).
Where a name gives a salt, the structure may show the parent alone.

Key:
beagle dogs = details: dog, in vivo
Description: (§1) Animal toxicology studies of larotinib mesylate were conducted in both Sprague–Dawley rats and beagle dogs. […] The maximal tolerable doses (MTDs) were 20 and 25 mg/kg in Sprague–Dawley rats and beagle dogs, respectively.
(§2) According to the guidance for clinical trials of antitumor agents published by the Center for Drug Evaluation and Research in China, for cytotoxic antitumor agents, the initial dose in a phase I study can be calculated as 1/10 of the MTD in rodents or 1/6 of the MTD in non-rodent animals ([CFDA, 2012]). For non-cytotoxic antitumor agents, because of their relatively lower toxicity, the initial dose can be set higher. According to the reported preclinical results for larotinib mesylate, the MTD in Sprague–Dawley rats translated to a human equivalent dose of 192 mg/d according to body surface area (calculated by 60 kg body weight), for which 1/10 is 19.2 mg/d ([FDA, 2005]). […] Taking the above results for the toxicology, preclinical pharmacology and pharmacodynamics, and drug specifications (10, 50 and 100 mg) of larotinib mesylate into account, we calculated a recommended starting dose of 50 mg larotinib mesylate for a phase I, first-in-human clinical study, lower than human equivalent 1/6 MTD translated from beagle dogs and near the human equivalent effective dose translated from tumor-bearing mice. […]

Sprague–Dawley rats = details: rat, in vivo
Description: as §1, §2

For COc1cc2ncnc(Nc3ccc(F)c(Cl)c3)c2cc1OCCCN1C[C@@H]2OCCO[C@@H]2C1 [larotinib mesylate], the “human equivalent dose of MTD” value (beagle dogs) was 810 mg/day and the “human equivalent dose of MTD” value (Sprague–Dawley rats) was 192 mg/day.
